Data from ChEMBL document CHEMBL3046841, “The synthesis and screening of the antimicrobial activity of some novel 3-(furan-2-yl)-1-(aryl)-3-(phenylthio) propan-1-one derivatives” (2011).
≈ marks a conversion by molar mass, not a printed value.

Legend:
Assay type in all cases: functional
Salmonella enteritidis [1] = experiment: Antimicrobial activity against Salmonella enterica subsp. enterica serovar Enteritidis ATCC 13076 after 24 hr by serial microdilution method; details: ATCC 13076, 24 h
Cyberlindnera jadinii [2] = experiment: Antimicrobial activity against Cyberlindnera jadinii KUEN 1031 at 105 ug/disc after 48 hr by disk diffusion method; details: Williopsis jadinii, KUEN 1031, 48 h; read-out: IZ
Pseudomonas aeruginosa [3] = experiment: Antimicrobial activity against Pseudomonas aeruginosa ATCC 9027 at 105 ug/disk after 24 hr by disk diffusion method; details: ATCC 9027, 24 h, read-out: IZ
Cyberlindnera jadinii [4] = experiment: Antimicrobial activity against Cyberlindnera jadinii KUEN 1031 serial microdilution method; details: Williopsis jadinii
Proteus vulgaris [5] = experiment: Antimicrobial activity against Proteus vulgaris KUEN 1329 after 24 hr by serial microdilution method; details: KUEN 1329, 24 h
Bacillus cereus [6] = experiment: Antimicrobial activity against Bacillus cereus DSM 4312 at 105 ug/disk after 24 hr by disk diffusion method; details: DSM 4312, 24 h, read-out: IZ
Proteus vulgaris [7] = experiment: Antimicrobial activity against Proteus vulgaris KUEN 1329 at 105 ug/disk after 24 hr by disk diffusion method; details: KUEN 1329, 24 h, read-out: IZ
Escherichia coli [8] = experiment: Antimicrobial activity against Escherichia coli 111 after 24 hr by serial microdilution method; details: Escherichia coli, 111, 24 h
Candida albicans [9] = experiment: Antimicrobial activity against Candida albicans ATCC 1213 by serial microdilution method
Staphylococcus aureus [10] = experiment: Antimicrobial activity against Staphylococcus aureus ATCC 29213 after 24 hr by serial microdilution method; details: ATCC 29213, 24 h
Pseudomonas aeruginosa [11] = experiment: Antimicrobial activity against Pseudomonas aeruginosa ATCC 9027 after 24 hr by serial microdilution method; details: ATCC 9027, 24 h
Salmonella enteritidis [12] = experiment: Antimicrobial activity against Salmonella enterica subsp. enterica serovar Enteritidis ATCC 13076 at 105 ug/disk after 24 hr by disk diffusion method; details: ATCC 13076, 24 h, read-out: IZ
Escherichia coli [13] = experiment: Antimicrobial activity against Escherichia coli 111 at 105 ug/disk after 24 hr by disk diffusion method; details: Escherichia coli, 111, 24 h; read-out: IZ
Candida albicans [14] = experiment: Antimicrobial activity against Candida albicans ATCC 1213 at 105 ug/disk after 48 hr by disk diffusion method; details: ATCC 1213, 48 h, read-out: IZ
Bacillus subtilis [15] = experiment: Antimicrobial activity against Bacillus subtilis ATCC 6633 at 105 ug/disk after 24 hr by disk diffusion method; details: ATCC 6633, 24 h, read-out: IZ
Pseudomonas aeruginosa [16] = experiment: Antimicrobial activity against Pseudomonas aeruginosa ATCC 27859 at 105 ug/disk after 24 hr by disk diffusion method; details: ATCC 27859, 24 h, read-out: IZ
Streptococcus pyogenes [17] = experiment: Antimicrobial activity against Streptococcus pyogenes ATCC 176 after 24 hr by serial microdilution method; details: ATCC 176, 24 h
Pseudomonas aeruginosa [18] = experiment: Antimicrobial activity against Pseudomonas aeruginosa ATCC 27859 after 24 hr by serial microdilution method; details: ATCC 27859, 24 h
Bacillus subtilis [19] = experiment: Antimicrobial activity against Bacillus subtilis ATCC 6633 after 24 hr by serial microdilution method; details: ATCC 6633, 24 h
Streptococcus pyogenes [20] = experiment: Antimicrobial activity against Streptococcus pyogenes ATCC 176 at 105 ug/disc after 24 hr by disc diffusion method; details: ATCC 176, 24 h, read-out: IZ
Staphylococcus aureus [21] = experiment: Antimicrobial activity against Staphylococcus aureus ATCC 29213 at 105 ug/disc after 24 hr by disk diffusion method; details: ATCC 29213, 24 h, read-out: IZ
Bacillus cereus [22] = experiment: Antimicrobial activity against Bacillus cereus DSM 4312 after 24 hr by serial microdilution method; details: DSM 4312, 24 h

SMILES	MIC (Salmonella enteritidis [1])	MIC (Cyberlindnera jadinii [4])	MIC (Proteus vulgaris [5])	MIC (Escherichia coli [8])	MIC (Candida albicans [9])	MIC (Staphylococcus aureus [10])	MIC (Pseudomonas aeruginosa [11])	MIC (Streptococcus pyogenes [17])	MIC (Pseudomonas aeruginosa [18])	MIC (Bacillus subtilis [19])	MIC (Bacillus cereus [22])	zone of inhibition at 105 µg/disc (Cyberlindnera jadinii [2])	zone of inhibition at 105 µg/disc (Pseudomonas aeruginosa [3])	zone of inhibition at 105 µg/disc (Bacillus cereus [6])	zone of inhibition at 105 µg/disc (Proteus vulgaris [7])	zone of inhibition at 105 µg/disc (Salmonella enteritidis [12])	zone of inhibition at 105 µg/disc (Escherichia coli [13])	zone of inhibition at 105 µg/disc (Candida albicans [14])	zone of inhibition at 105 µg/disc (Bacillus subtilis [15])	zone of inhibition at 105 µg/disc (Streptococcus pyogenes [20])	also measured
COc1cccc(C(=O)CC(Sc2ccccc2)c2ccco2)c1 (configuration not stated)	62.5 µg/mL (≈ 185 µM)	15.6 µg/mL (≈ 46.2 µM)	31.2 µg/mL (≈ 92.3 µM)	31.2 µg/mL (≈ 92.3 µM)	15.6 µg/mL (≈ 46.2 µM)	> 125 µg/mL	> 125 µg/mL	7.81 µg/mL (≈ 23.1 µM)	125 µg/mL (≈ 369 µM)	62.5 µg/mL (≈ 185 µM)	62.5 µg/mL (≈ 185 µM)	13 mm	–	–	14 mm	17 mm	14 mm	17 mm	12 mm	–	–
COc1ccc(C(=O)CC(Sc2ccccc2)c2ccco2)cc1 (configuration not stated)	> 125 µg/mL	125 µg/mL (≈ 369 µM)	62.5 µg/mL (≈ 185 µM)	62.5 µg/mL (≈ 185 µM)	> 125 µg/mL	> 125 µg/mL	62.5 µg/mL (≈ 185 µM)	> 125 µg/mL	62.5 µg/mL (≈ 185 µM)	125 µg/mL (≈ 369 µM)	62.5 µg/mL (≈ 185 µM)	12 mm	13 mm	–	–	–	10 mm	12 mm	–	13 mm	–
O=C(CC(Sc1ccccc1)c1ccco1)c1cccc(Cl)c1 (configuration not stated)	15.6 µg/mL (≈ 45.6 µM)	15.6 µg/mL (≈ 45.6 µM)	31.2 µg/mL (≈ 91.1 µM)	> 125 µg/mL	15.6 µg/mL (≈ 45.6 µM)	31.2 µg/mL (≈ 91.1 µM)	15.6 µg/mL (≈ 45.6 µM)	31.2 µg/mL (≈ 91.1 µM)	62.5 µg/mL (≈ 182 µM)	31.2 µg/mL (≈ 91.1 µM)	31.2 µg/mL (≈ 91.1 µM)	15 mm	15 mm	11 mm	17 mm	19 mm	–	17 mm	14 mm	14 mm	zone of inhibition at 105 µg/disc (Pseudomonas aeruginosa [16]): 16 mm; zone of inhibition at 105 µg/disc (Staphylococcus aureus [21]): 16 mm
O=C(CC(Sc1ccccc1)c1ccco1)c1ccc(Cl)cc1 (configuration not stated)	62.5 µg/mL (≈ 182 µM)	62.5 µg/mL (≈ 182 µM)	7.81 µg/mL (≈ 22.8 µM)	62.5 µg/mL (≈ 182 µM)	62.5 µg/mL (≈ 182 µM)	> 125 µg/mL	> 125 µg/mL	125 µg/mL (≈ 365 µM)	> 125 µg/mL	> 125 µg/mL	31.2 µg/mL (≈ 91.1 µM)	14 mm	15 mm	10 mm	14 mm	17 mm	10 mm	14 mm	–	13 mm	–

Continued, in another order:

MIC (Salmonella enteritidis [1])	MIC (Cyberlindnera jadinii [4])	MIC (Proteus vulgaris [5])	MIC (Escherichia coli [8])	MIC (Candida albicans [9])	MIC (Staphylococcus aureus [10])	MIC (Pseudomonas aeruginosa [11])	MIC (Streptococcus pyogenes [17])	MIC (Pseudomonas aeruginosa [18])	MIC (Bacillus subtilis [19])	MIC (Bacillus cereus [22])	SMILES	zone of inhibition at 105 µg/disc (Cyberlindnera jadinii [2])	zone of inhibition at 105 µg/disc (Pseudomonas aeruginosa [3])	zone of inhibition at 105 µg/disc (Bacillus cereus [6])	zone of inhibition at 105 µg/disc (Proteus vulgaris [7])	zone of inhibition at 105 µg/disc (Salmonella enteritidis [12])	zone of inhibition at 105 µg/disc (Escherichia coli [13])	zone of inhibition at 105 µg/disc (Candida albicans [14])	zone of inhibition at 105 µg/disc (Bacillus subtilis [15])	zone of inhibition at 105 µg/disc (Streptococcus pyogenes [20])	also measured
15.6 µg/mL (≈ 46.2 µM)	125 µg/mL (≈ 369 µM)	31.2 µg/mL (≈ 92.3 µM)	62.5 µg/mL (≈ 185 µM)	125 µg/mL (≈ 369 µM)	7.81 µg/mL (≈ 23.1 µM)	31.2 µg/mL (≈ 92.3 µM)	31.2 µg/mL (≈ 92.3 µM)	62.5 µg/mL (≈ 185 µM)	31.2 µg/mL (≈ 92.3 µM)	31.2 µg/mL (≈ 92.3 µM)	COc1ccccc1C(=O)CC(Sc1ccccc1)c1ccco1 (configuration not stated)	14 mm	15 mm	10 mm	15 mm	18 mm	13 mm	17 mm	14 mm	15 mm	zone of inhibition at 105 µg/disc (Pseudomonas aeruginosa [16]): 15 mm; zone of inhibition at 105 µg/disc (Staphylococcus aureus [21]): 17 mm
15.6 µg/mL (≈ 45.6 µM)	125 µg/mL (≈ 365 µM)	31.2 µg/mL (≈ 91.1 µM)	> 125 µg/mL	15.6 µg/mL (≈ 45.6 µM)	7.81 µg/mL (≈ 22.8 µM)	31.2 µg/mL (≈ 91.1 µM)	15.6 µg/mL (≈ 45.6 µM)	125 µg/mL (≈ 365 µM)	31.2 µg/mL (≈ 91.1 µM)	31.2 µg/mL (≈ 91.1 µM)	O=C(CC(Sc1ccccc1)c1ccco1)c1ccccc1Cl (configuration not stated)	13 mm	14 mm	11 mm	16 mm	18 mm	–	16 mm	15 mm	–	zone of inhibition at 105 µg/disc (Pseudomonas aeruginosa [16]): 14 mm; zone of inhibition at 105 µg/disc (Staphylococcus aureus [21]): 18 mm
> 125 µg/mL	> 125 µg/mL	62.5 µg/mL (≈ 161 µM)	62.5 µg/mL (≈ 161 µM)	> 125 µg/mL	7.81 µg/mL (≈ 20.2 µM)	> 125 µg/mL	> 125 µg/mL	31.2 µg/mL (≈ 80.7 µM)	31.2 µg/mL (≈ 80.7 µM)	31.2 µg/mL (≈ 80.7 µM)	O=C(CC(Sc1ccccc1)c1ccco1)c1ccccc1Br (configuration not stated)	15 mm	15 mm	12 mm	16 mm	15 mm	10 mm	17 mm	15 mm	13 mm	zone of inhibition at 105 µg/disc (Pseudomonas aeruginosa [16]): 16 mm; zone of inhibition at 105 µg/disc (Staphylococcus aureus [21]): 17 mm
